Measurements from patent publication US20220041647A1, “ESTRA-1,3,5(10)-TRIENE COMPOUNDS CONDENSED IN POSITION 16(17) WITH A PYRAZOLE RING AS INHIBITORS OF 17-HSD1” (FORENDO PHARMA LTD, priority 2018, published 2022).

How the values were obtained:
[1] = target: T1, recombinant human 17β-HSD2 (Homo sapiens, UniProt P37059); assay: Inhibition of recombinant human 17β-HSD2 (estradiol to estrone conversion, HPLC/radioactivity); format: biochemical; details: compound 1 μM; 50 nM estradiol, 1 mM NADH, 30 min RT
T1 construct: made in house; host or cells: Sd9 (Sf9) insect cells, baculovirus (Bac to Bac Expression System)
T1 sequence (P37059 1-387): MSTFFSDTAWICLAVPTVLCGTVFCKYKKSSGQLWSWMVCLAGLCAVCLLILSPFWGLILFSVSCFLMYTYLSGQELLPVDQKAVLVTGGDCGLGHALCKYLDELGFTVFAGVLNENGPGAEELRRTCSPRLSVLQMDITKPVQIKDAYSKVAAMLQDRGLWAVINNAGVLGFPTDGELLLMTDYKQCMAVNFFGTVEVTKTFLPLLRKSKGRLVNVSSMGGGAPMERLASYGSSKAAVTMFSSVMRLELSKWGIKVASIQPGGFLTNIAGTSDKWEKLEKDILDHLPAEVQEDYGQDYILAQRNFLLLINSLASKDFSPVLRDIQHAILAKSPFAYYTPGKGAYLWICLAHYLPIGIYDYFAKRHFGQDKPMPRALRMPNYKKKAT
In short: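 Membrane extract of Sf9 cells expressing recombinant human 17β-HSD2 (4 μg/ml), in 20 mM KH2PO4 pH 8.5 with 50 nM ^3H-spiked estradiol and 1 mM NADH, 30 min at RT, 1% DMSO. Compound at 1 μM or 0.1 μM; estrone formation by HPLC radioactivity, % inhibition relative to uninhibited conversion.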

[2] = test system: HSD1 enzyme that is expressed in rabbit placenta tissue; assay: Inhibition of E1 to E2 conversion in rabbit placenta tissue homogenate; format: biochemical; details: compound 100 nM, 30 nM estrone, 1 mM β-NADPH, 30 min
In short: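 Rabbit placenta homogenate (20 mM KH2PO4, 1 mM EDTA, pH 7.4) incubated 30 min with 1 mM β-NADPH, 30 nM estrone plus 5 nM [3H]-estrone tracer, and inhibitor at 1 μM or 0.1 μM (1% DMSO). Stopped with TCA; estrone and estradiol resolved by HPLC with scintillation counting; % inhibition = 100 − % conversion relative to uninhibited control.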

[3] = Metabolic stability assay, human hepatocyte incubations; format: in vitro ADME; details: compound 1 μM, human hepatocytes, 0-60 min at 37° C.; read-out: Human hepatocytes MetStab T½ min
Experimental: Compound stock solutions of the invention were prepared in […]. Final concentration of DMSO was adjusted to 1% in all samples. The in vitro metabolic stability of the compounds of the invention was determined for exemplified compounds using human hepatocyte incubations; study compounds at concentration of 1 μM were incubated 0, 10, 20, 40 and 60 min at 37° C. Samples were collected at all time points and compounds were detected by LC-MS/MS analysis. The percent compound remaining is calculated by comparing the peak area of the parent compound at each time point to time zero. In vitro metabolic stability was determined as half life (T1/2), which was determined by regression analysis of the percent parent disappearance vs. time curve.

SMILES: C[C@]12CCC3c4cccc(F)c4CCC3C1[C@H](CCC(=O)Nc1ncc(F)cc1F)c1c[nH]nc12 (stereo partly drawn) [Compound 9, N-(3,5-difluoropyridin-2-yl)-3-((8aS,12S)-3-fluoro-8a-methyl-1,2,6b,7,8,8a,10,12,12a,12b-decahydronaphtho[2′,1′:4,5]indeno[1,2-c]pyrazol-12-yl)propanamide]
- inhibition at 1 µM [1]: 3%
- Rabbit placenta inhibition % @100 nM [2]: 26%
- half-life at 1 μM [3]: 61 min

SMILES: C[C@]12CCC3c4cccc(F)c4CCC3C1[C@H](CCC(=O)Nc1cc(F)ccn1)c1c[nH]nc12 (stereo partly drawn) [Compound 15, 3-((8aS,12S)-3-fluoro-8a-methyl-1,2,6b,7,8,8a,10,12,12a,12b-decahydronaphtho[2′,1′:4,5]indeno[1,2-c]pyrazol-12-yl)-N-(4-fluoropyridin-2-yl)propanamide]
- inhibition at 1 µM [1]: 6%
- Rabbit placenta inhibition % @100 nM [2]: 64%
- half-life at 1 μM [3]: 43 min

SMILES: C[C@]12CCC3c4cccc(F)c4CCC3C1[C@H](CCC(=O)Nc1ccccn1)c1c[nH]nc12 (stereo partly drawn) [Compound 18, 3-((8aS,12S)-3-fluoro-8a-methyl-1,2,6b,7,8,8a,10,12,12a,12b-decahydronaphtho[2′,1′:4,5]indeno[1,2-c]pyrazol-12-yl)-N-(pyridin-2-yl)propanamide]
- inhibition at 1 µM [1]: 1%
- Rabbit placenta inhibition % @100 nM [2]: 44%
- half-life at 1 μM [3]: 41 min

SMILES: COc1ccc(NC(=O)CC[C@@H]2c3c[nH]nc3[C@@]3(C)CCC4c5cccc(F)c5CCC4C23)nc1 (stereo partly drawn) [Compound 21, 3-((8aS,12S)-3-fluoro-8a-methyl-1,2,6b,7,8,8a,10,12,12a,12b-decahydronaphtho[2′,1′:4,5]indeno[1,2-c]pyrazol-12-yl)-N-(5-methoxypyridin-2-yl)propanamide]
- inhibition at 1 µM [1]: 4%
- Rabbit placenta inhibition % @100 nM [2]: 68%
- half-life at 1 μM [3]: 40 min

SMILES: C[C@]12CCC3c4cccc(F)c4CCC3C1[C@H](CCC(=O)N1CCNC(=O)C1)c1c[nH]nc12 (stereo partly drawn) [Compound 24, 4-(3-((8aS,12S)-3-fluoro-8a-methyl-1,2,6b,7,8,8a,10,12,12a,12b-decahydronaphtho[2′,1′:4,5]indeno[1,2-c]pyrazol-12-yl)propanoyl)piperazin-2-one]
- inhibition at 1 µM [1]: 1%
- Rabbit placenta inhibition % @100 nM [2]: 27%
- half-life at 1 μM [3]: 33 min

SMILES: C[C@]12CCC3c4cccc(F)c4CCC3C1[C@H](CCC(=O)Nc1cc3c([nH]c1=O)CCCC3)c1c[nH]nc12 (stereo partly drawn) [Compound 30, 3-((8aS,12S)-3-fluoro-8a-methyl-1,2,6b,7,8,8a,10,12,12a,12b-decahydronaphtho[2′,1′:4,5]indeno[1,2-c]pyrazol-12-yl)-N-(2-oxo-1,2,5,6,7,8-hexahydroquinolin-3-yl)propanamide]
- inhibition at 1 µM [1]: 3%
- Rabbit placenta inhibition % @100 nM [2]: 53%
- half-life at 1 μM [3]: 117 min

SMILES: CN(C)C(=O)c1ccc(NC(=O)CC[C@@H]2c3c[nH]nc3[C@@]3(C)CCC4c5cccc(F)c5CCC4C23)nc1 (stereo partly drawn) [Compound 33, 6-(3-((8aS,12S)-3-fluoro-8a-methyl-1,2,6b,7,8,8a,10,12,12a,12b-decahydronaphtho[2′,1′:4,5]indeno[1,2-c]pyrazol-12-yl)propanamido)-N,N-dimethylnicotinamide]
- inhibition at 1 µM [1]: 8%
- Rabbit placenta inhibition % @100 nM [2]: 68%
- half-life at 1 μM [3]: 107 min

SMILES: CC(C)c1ccc(NC(=O)CC[C@@H]2c3c[nH]nc3[C@@]3(C)CCC4c5cccc(F)c5CCC4C23)nc1 (stereo partly drawn) [Compound 36, 3-((8aS,12S)-3-fluoro-8a-methyl-1,2,6b,7,8,8a,10,12,12a,12b-decahydronaphtho[2′,1′:4,5]indeno[1,2-c]pyrazol-12-yl)-N-(5-isopropylpyridin-2-yl)propanamide]
- inhibition at 1 µM [1]: 8%
- Rabbit placenta inhibition % @100 nM [2]: 55%
- half-life at 1 μM [3]: 37 min

SMILES: C[C@]12CCC3c4cccc(F)c4CCC3C1[C@H](CCC(=O)Nc1ccc(N3CCOCC3)cn1)c1c[nH]nc12 (stereo partly drawn) [Compound 39, 3-((8aS,12S)-3-fluoro-8a-methyl-1,2,6b,7,8,8a,10,12,12a,12b-decahydronaphtho[2′,1′:4,5]indeno[1,2-c]pyrazol-12-yl)-N-(5-morpholinopyridin-2-yl)propanamide]
- inhibition at 1 µM [1]: 9%
- Rabbit placenta inhibition % @100 nM [2]: 69%
- half-life at 1 μM [3]: 67 min

SMILES: CN1CCN(c2ccc(NC(=O)CC[C@@H]3c4c[nH]nc4[C@@]4(C)CCC5c6cccc(F)c6CCC5C34)nc2)CC1 (stereo partly drawn) [Compound 42, 3-((8aS,12S)-3-fluoro-8a-methyl-1,2,6b,7,8,8a,10,12,12a,12b-decahydronaphtho[2′,1′:4,5]indeno[1,2-c]pyrazol-12-yl)-N-(5-(4-methylpiperazin-1-yl)pyridin-2-yl)propanamide]
- inhibition at 1 µM [1]: 34%
- Rabbit placenta inhibition % @100 nM [2]: 82%
- half-life at 1 μM [3]: 47 min

SMILES: COc1ccnc(NC(=O)CC[C@@H]2c3c[nH]nc3[C@@]3(C)CCC4c5cccc(F)c5CCC4C23)c1 (stereo partly drawn) [Compound 48, 3-((8aS,12S)-3-fluoro-8a-methyl-1,2,6b,7,8,8a,10,12,12a,12b-decahydronaphtho[2′,1′:4,5]indeno[1,2-c]pyrazol-12-yl)-N-(4-methoxypyridin-2-yl)propanamide]
- inhibition at 1 µM [1]: 5%
- Rabbit placenta inhibition % @100 nM [2]: 57%
- half-life at 1 μM [3]: 34 min

SMILES: C[C@]12CCC3c4cccc(F)c4CCC3C1[C@H](CCC(=O)Nc1cnccn1)c1c[nH]nc12 (stereo partly drawn) [Compound 51, 3-((8aS,12S)-3-fluoro-8a-methyl-1,2,6b,7,8,8a,10,12,12a,12b-decahydronaphtho[2′,1′:4,5]indeno[1,2-c]pyrazol-12-yl)-N-(pyrazin-2-yl)propanamide]
- inhibition at 1 µM [1]: 1%
- Rabbit placenta inhibition % @100 nM [2]: 59%
- half-life at 1 μM [3]: 31 min

SMILES: Cn1ccc(NC(=O)CC[C@@H]2c3c[nH]nc3[C@@]3(C)CCC4c5cccc(F)c5CCC4C23)n1 (stereo partly drawn) [Compound 54, 3-((8aS,12S)-3-fluoro-8a-methyl-1,2,6b,7,8,8a,10,12,12a,12b-decahydronaphtho[2′,1′:4,5]indeno[1,2-c]pyrazol-12-yl)-N-(1-methyl-1H-pyrazol-3-yl)propanamide]
- inhibition at 1 µM [1]: 8%
- Rabbit placenta inhibition % @100 nM [2]: 52%
- half-life at 1 μM [3]: 68 min

SMILES: C[C@]12CCC3c4cccc(F)c4CCC3C1[C@H](CCC(=O)N1Cc3ccccc3C1)c1c[nH]nc12 (stereo partly drawn) [Compound 57, 3-((8aS,12S)-3-fluoro-8a-methyl-1,2,6b,7,8,8a,10,12,12a,12b-decahydronaphtho[2′,1′:4,5]indeno[1,2-c]pyrazol-12-yl)-1-(isoindolin-2-yl)propan-1-one]
- inhibition at 1 µM [1]: 16%
- Rabbit placenta inhibition % @100 nM [2]: 48%
- half-life at 1 μM [3]: 58 min

SMILES: COc1ccc(NC(=O)CC[C@@H]2c3c[nH]nc3[C@@]3(C)CCC4c5ccc(F)cc5CCC4C23)nc1 (stereo partly drawn) [Compound 84, 3-((8aS,12S)-4-fluoro-8a-methyl-1,2,6b,7,8,8a,10,12,12a,12b-decahydronaphtho[2′,1′:4,5]indeno[1,2-c]pyrazol-12-yl)-N-(5-methoxypyridin-2-yl)propanamide]
- inhibition at 1 µM [1]: 2%
- Rabbit placenta inhibition % @100 nM [2]: 27%
- half-life at 1 μM [3]: 148 min

SMILES: CC(C)c1ccc(NC(=O)CC[C@@H]2c3c[nH]nc3[C@@]3(C)CCC4c5ccc(F)cc5CCC4C23)nc1 (stereo partly drawn) [Compound 87, 3-((8aS,12S)-4-fluoro-8a-methyl-1,2,6b,7,8,8a,10,12,12a,12b-decahydronaphtho[2′,1′:4,5]indeno[1,2-c]pyrazol-12-yl)-N-(5-isopropylpyridin-2-yl)propanamide]
- inhibition at 1 µM [1]: 6%
- Rabbit placenta inhibition % @100 nM [2]: 16%
- half-life at 1 μM [3]: 127 min
